Measurements from patent publication US20210032291A1, “Compstatin Analogs With Improved Pharmacokinetic Properties” (The Trustees of the University of Pennsylvania, priority 2011, published 2021).
Read-outs that look alike come from different tables or passages of the source. Bridge positions count the residues as written; N and C are the ends. Square brackets hold non-standard residues; d marks the D form. Peptide text beside a SMILES is read from it. Trp(1-Me) = Cn1cc(C[C@H](N)C(=O)O)c2ccccc21; NMeI = CC[C@H](C)[C@H](NC)C(=O)O; Orn = NCCC[C@H](N)C(=O)O; Sar = CNCC(=O)O

Target: T1, C3b (Homo sapiens, UniProt P01024)
T1 construct: Biotinylated C3b was captured site-specifically on a streptavidin chip
Assay: SPR kinetic analysis of binding to immobilized C3b (Biacore, single cycle kinetics)
Details: for Kd: read-out: KD: binding constant from SPR; for koff: read-out: kd: dissociation rate
Method: SPR analysis. The interaction of the compstatin analogs with C3b was characterized using a Biacore 3000 instrument (GE Healthcare, Corp., Piscataway, N.J.). The running buffer was PBS, pH 7.4 (10 mM sodium phosphate, 150 mM NaCl) with 0.005% Tween-20. Biotinylated C3b was captured site-specifically on a streptavidin chip at about 3000 and 5000 RU density; two untreated flow cells were used as reference surface. For kinetic analysis, sets of five increasing concentrations of a particular compound were injected over the chip surface one after the other in a single cycle. […] Processed biosensor data were globally fitted to a 1:1 Langmuir binding model (kindly provided by GE Helthcare), and the equilibrium dissociation constant (KD) was calculated from the equation KD=kd/ka. Each assay was performed at least twice.

T1 sequence (P01024 23-667 limits assumed): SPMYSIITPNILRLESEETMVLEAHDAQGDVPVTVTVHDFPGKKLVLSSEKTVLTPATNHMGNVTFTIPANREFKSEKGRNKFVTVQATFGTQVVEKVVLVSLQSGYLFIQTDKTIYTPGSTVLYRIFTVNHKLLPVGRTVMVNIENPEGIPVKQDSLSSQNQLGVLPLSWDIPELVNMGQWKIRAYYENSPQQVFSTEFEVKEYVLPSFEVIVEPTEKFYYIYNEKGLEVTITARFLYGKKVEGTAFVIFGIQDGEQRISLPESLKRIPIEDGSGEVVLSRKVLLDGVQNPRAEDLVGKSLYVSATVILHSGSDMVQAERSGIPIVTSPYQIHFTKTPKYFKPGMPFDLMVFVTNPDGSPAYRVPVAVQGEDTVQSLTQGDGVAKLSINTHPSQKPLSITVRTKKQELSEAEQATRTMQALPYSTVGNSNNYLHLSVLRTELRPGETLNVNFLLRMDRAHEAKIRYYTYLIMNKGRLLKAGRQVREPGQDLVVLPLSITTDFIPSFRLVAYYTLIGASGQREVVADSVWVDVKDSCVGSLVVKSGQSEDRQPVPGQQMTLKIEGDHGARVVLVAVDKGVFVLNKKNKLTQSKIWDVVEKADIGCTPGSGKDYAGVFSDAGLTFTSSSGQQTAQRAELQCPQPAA
T1 sequence (P01024 749-1663 partner limits assumed): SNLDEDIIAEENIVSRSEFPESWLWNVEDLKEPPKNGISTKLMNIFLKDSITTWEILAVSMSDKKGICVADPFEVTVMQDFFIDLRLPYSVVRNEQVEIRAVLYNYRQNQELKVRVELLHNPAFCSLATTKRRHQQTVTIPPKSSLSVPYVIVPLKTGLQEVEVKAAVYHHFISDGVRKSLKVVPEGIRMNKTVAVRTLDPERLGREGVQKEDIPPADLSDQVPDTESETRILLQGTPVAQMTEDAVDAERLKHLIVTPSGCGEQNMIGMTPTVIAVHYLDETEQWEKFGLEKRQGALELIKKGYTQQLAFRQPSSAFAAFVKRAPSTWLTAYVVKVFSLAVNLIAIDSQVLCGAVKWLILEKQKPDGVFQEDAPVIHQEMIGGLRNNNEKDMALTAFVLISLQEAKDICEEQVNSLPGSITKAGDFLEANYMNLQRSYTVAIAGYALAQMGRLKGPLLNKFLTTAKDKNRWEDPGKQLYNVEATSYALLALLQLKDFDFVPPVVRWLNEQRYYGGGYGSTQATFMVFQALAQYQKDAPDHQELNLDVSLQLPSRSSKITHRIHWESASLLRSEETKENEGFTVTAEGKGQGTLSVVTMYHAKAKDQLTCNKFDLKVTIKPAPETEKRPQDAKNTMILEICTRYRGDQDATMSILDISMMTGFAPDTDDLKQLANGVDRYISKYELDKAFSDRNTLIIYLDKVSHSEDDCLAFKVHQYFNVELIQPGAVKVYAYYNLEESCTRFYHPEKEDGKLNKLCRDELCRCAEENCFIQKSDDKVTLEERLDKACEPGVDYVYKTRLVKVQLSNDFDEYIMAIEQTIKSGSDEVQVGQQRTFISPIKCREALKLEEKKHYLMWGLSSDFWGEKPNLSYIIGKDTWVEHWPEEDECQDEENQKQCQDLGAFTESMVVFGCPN

ka: association rate (Table 2, Cp40-based analogs) | Kd (Table 2, Cp40-based analogs) [nM] | koff (Table 2, Cp40-based analogs) [s⁻¹] | Compound | ka: association rate (Table 1, N-terminal analogs) | Kd (Table 1, N-terminal analogs) [nM] | koff (Table 1, N-terminal analogs) [s⁻¹]
0.9 ± 0.1 10^6/Ms | 3 ± 0.4 | 0.0028 ± 0.0001 | CC[C@H](C)[C@H](NC(=O)[C@H](N)Cc1ccc(O)cc1)C(=O)N[C@H]1CSSC[C@@H](C(=O)N(C)[C@H](C(N)=O)[C@@H](C)CC)NC(=O)[C@H](CCCNC(=N)N)NC(=O)[C@H](Cc2c[nH]cn2)NC(=O)[C@H](C)NC(=O)CN(C)C(=O)[C@H](Cc2c[nH]c3ccccc23)NC(=O)[C@H](CC(N)=O)NC(=O)[C@H](CCC(N)=O)NC(=O)[C@H](Cc2cn(C)c3ccccc23)NC(=O)[C@H](C(C)C)NC1=O [Cp40 (6Asn)] (H-[dY]ICV[Trp(1-Me)]QNW[Sar]AHRC[NMeI]-NH2; disulfide 3-13) | – | – | –
2.0 ± 0.4 10^6/Ms | 1.5 ± 0.4 | 0.0028 ± 0.0006 | CC[C@H](C)[C@H](NC(=O)[C@H](N)Cc1ccc(O)cc1)C(=O)N[C@H]1CSSC[C@@H](C(=O)N(C)[C@H](C(N)=O)[C@@H](C)CC)NC(=O)[C@H](CCCN)NC(=O)[C@H](Cc2c[nH]cn2)NC(=O)[C@H](C)NC(=O)CN(C)C(=O)[C@H](Cc2c[nH]c3ccccc23)NC(=O)[C@H](CC(N)=O)NC(=O)[C@H](CCC(N)=O)NC(=O)[C@H](Cc2cn(C)c3ccccc23)NC(=O)[C@H](C(C)C)NC1=O [Cp40 (11Orn 6Asn)] (H-[dY]ICV[Trp(1-Me)]QNW[Sar]AH[Orn]C[NMeI]-NH2; disulfide 3-13) | – | – | –
2.5 ± 0.1 10^6/Ms | 0.8 ± 0.1 | 0.002 ± 0.0001 | CC[C@H](C)[C@H](NC(=O)[C@H](N)Cc1ccc(O)cc1)C(=O)N[C@H]1CSSC[C@@H](C(=O)N(C)[C@H](C(N)=O)[C@@H](C)CC)NC(=O)[C@H](CCCN)NC(=O)[C@H](Cc2c[nH]cn2)NC(=O)[C@H](C)NC(=O)CN(C)C(=O)[C@H](Cc2c[nH]c3ccccc23)NC(=O)[C@H](CC(=O)O)NC(=O)[C@H](CCC(N)=O)NC(=O)[C@H](Cc2cn(C)c3ccccc23)NC(=O)[C@H](C(C)C)NC1=O [Cp40 (11Orn)] (H-[dY]ICV[Trp(1-Me)]QDW[Sar]AH[Orn]C[NMeI]-NH2; disulfide 3-13) | – | – | –
– | – | – | CC[C@H](C)[C@H](NC(=O)[C@@H](N)Cc1ccccc1)C(=O)N[C@H]1CSSC[C@@H](C(=O)N(C)[C@H](C(N)=O)[C@@H](C)CC)NC(=O)[C@H](CCCNC(=N)N)NC(=O)[C@H](Cc2c[nH]cn2)NC(=O)[C@H](C)NC(=O)CN(C)C(=O)[C@H](Cc2c[nH]c3ccccc23)NC(=O)[C@H](CC(=O)O)NC(=O)[C@H](CCC(N)=O)NC(=O)[C@H](Cc2cn(C)c3ccccc23)NC(=O)[C@H](C(C)C)NC1=O [compound 5] (H-FICV[Trp(1-Me)]QDW[Sar]AHRC[NMeI]-NH2; disulfide 3-13) | 2.1 ± 0.4 10^6/Ms | 1.6 ± 0.2 | 0.0033 ± 0.0003
– | – | – | CC[C@H](C)[C@H](NC(=O)[C@@H](N)CCCNC(=N)N)C(=O)N[C@H]1CSSC[C@@H](C(=O)N(C)[C@H](C(N)=O)[C@@H](C)CC)NC(=O)[C@H](CCCNC(=N)N)NC(=O)[C@H](Cc2c[nH]cn2)NC(=O)[C@H](C)NC(=O)CN(C)C(=O)[C@H](Cc2c[nH]c3ccccc23)NC(=O)[C@H](CC(=O)O)NC(=O)[C@H](CCC(N)=O)NC(=O)[C@H](Cc2cn(C)c3ccccc23)NC(=O)[C@H](C(C)C)NC1=O [compound 6] (H-RICV[Trp(1-Me)]QDW[Sar]AHRC[NMeI]-NH2; disulfide 3-13) | 1.7 ± 0.2 10^6/Ms | 1.7 ± 0.2 | 0.0029 ± 0.0002
– | – | – | CC[C@H](C)[C@H](NC(=O)[C@@H](N)Cc1c[nH]c2ccccc12)C(=O)N[C@H]1CSSC[C@@H](C(=O)N(C)[C@H](C(N)=O)[C@@H](C)CC)NC(=O)[C@H](CCCNC(=N)N)NC(=O)[C@H](Cc2c[nH]cn2)NC(=O)[C@H](C)NC(=O)CN(C)C(=O)[C@H](Cc2c[nH]c3ccccc23)NC(=O)[C@H](CC(=O)O)NC(=O)[C@H](CCC(N)=O)NC(=O)[C@H](Cc2cn(C)c3ccccc23)NC(=O)[C@H](C(C)C)NC1=O [compound 7] (H-WICV[Trp(1-Me)]QDW[Sar]AHRC[NMeI]-NH2; disulfide 3-13) | 1.6 ± 0.1 10^6/Ms | 2.2 ± 0.2 | –
– | – | – | CC[C@H](C)[C@H](NC(=O)[C@@H](N)[C@@H](C)O)C(=O)N[C@H]1CSSC[C@@H](C(=O)N(C)[C@H](C(N)=O)[C@@H](C)CC)NC(=O)[C@H](CCCNC(=N)N)NC(=O)[C@H](Cc2c[nH]cn2)NC(=O)[C@H](C)NC(=O)CN(C)C(=O)[C@H](Cc2c[nH]c3ccccc23)NC(=O)[C@H](CC(=O)O)NC(=O)[C@H](CCC(N)=O)NC(=O)[C@H](Cc2cn(C)c3ccccc23)NC(=O)[C@H](C(C)C)NC1=O [compound 8] (H-TICV[Trp(1-Me)]QDW[Sar]AHRC[NMeI]-NH2; disulfide 3-13) | 1.2 ± 0.1 10^6/Ms | 2.6 ± 0.3 | 0.0031 ± 0.0002
– | – | – | CC[C@H](C)[C@H](NC(=O)[C@@H](N)Cc1ccc(OC)cc1)C(=O)N[C@H]1CSSC[C@@H](C(=O)N(C)[C@H](C(N)=O)[C@@H](C)CC)NC(=O)[C@H](CCCNC(=N)N)NC(=O)[C@H](Cc2c[nH]cn2)NC(=O)[C@H](C)NC(=O)CN(C)C(=O)[C@H](Cc2c[nH]c3ccccc23)NC(=O)[C@H](CC(=O)O)NC(=O)[C@H](CCC(N)=O)NC(=O)[C@H](Cc2cn(C)c3ccccc23)NC(=O)[C@H](C(C)C)NC1=O [compound 9] | 2.3 ± 0.4 10^6/Ms | – | –
– | – | – | CC[C@H](C)[C@H](NC(=O)[C@H](Cc1ccccc1)NC)C(=O)N[C@H]1CSSC[C@@H](C(=O)N(C)[C@H](C(N)=O)[C@@H](C)CC)NC(=O)[C@H](CCCNC(=N)N)NC(=O)[C@H](Cc2c[nH]cn2)NC(=O)[C@H](C)NC(=O)CN(C)C(=O)[C@H](Cc2c[nH]c3ccccc23)NC(=O)[C@H](CC(=O)O)NC(=O)[C@H](CCC(N)=O)NC(=O)[C@H](Cc2cn(C)c3ccccc23)NC(=O)[C@H](C(C)C)NC1=O [compound 10] | 1.6 ± 0.2 10^6/Ms | 1.8 ± 0.3 | 0.0029 ± 0.0003
– | – | – | CC[C@H](C)[C@H](NC(=O)[C@@H](NC)C(C)C)C(=O)N[C@H]1CSSC[C@@H](C(=O)N(C)[C@H](C(N)=O)[C@@H](C)CC)NC(=O)[C@H](CCCNC(=N)N)NC(=O)[C@H](Cc2c[nH]cn2)NC(=O)[C@H](C)NC(=O)CN(C)C(=O)[C@H](Cc2c[nH]c3ccccc23)NC(=O)[C@H](CC(=O)O)NC(=O)[C@H](CCC(N)=O)NC(=O)[C@H](Cc2cn(C)c3ccccc23)NC(=O)[C@H](C(C)C)NC1=O [compound 11] | 1.8 ± 0.3 10^6/Ms | 1.9 ± 0.1 | 0.0035 ± 0.0006
– | – | – | CC[C@H](C)[C@H](NC)C(=O)N[C@H](C(=O)N[C@H]1CSSC[C@@H](C(=O)N(C)[C@H](C(N)=O)[C@@H](C)CC)NC(=O)[C@H](CCCNC(=N)N)NC(=O)[C@H](Cc2c[nH]cn2)NC(=O)[C@H](C)NC(=O)CN(C)C(=O)[C@H](Cc2c[nH]c3ccccc23)NC(=O)[C@H](CC(=O)O)NC(=O)[C@H](CCC(N)=O)NC(=O)[C@H](Cc2cn(C)c3ccccc23)NC(=O)[C@H](C(C)C)NC1=O)[C@@H](C)CC [compound 12] | 1.6 ± 0.2 10^6/Ms | 2.4 ± 0.5 | 0.0037 ± 0.0003
– | – | – | CC[C@H](C)[C@H](NC(=O)[C@H](C)NC)C(=O)N[C@H]1CSSC[C@@H](C(=O)N(C)[C@H](C(N)=O)[C@@H](C)CC)NC(=O)[C@H](CCCNC(=N)N)NC(=O)[C@H](Cc2c[nH]cn2)NC(=O)[C@H](C)NC(=O)CN(C)C(=O)[C@H](Cc2c[nH]c3ccccc23)NC(=O)[C@H](CC(=O)O)NC(=O)[C@H](CCC(N)=O)NC(=O)[C@H](Cc2cn(C)c3ccccc23)NC(=O)[C@H](C(C)C)NC1=O [compound 13] | 1.4 ± 0.2 10^6/Ms | 2.5 ± 0.6 | 0.0034 ± 0.0003
– | – | – | CC[C@H](C)[C@H](NC(=O)[C@H](N)Cc1ccccc1)C(=O)N[C@H]1CSSC[C@@H](C(=O)N(C)[C@H](C(N)=O)[C@@H](C)CC)NC(=O)[C@H](CCCNC(=N)N)NC(=O)[C@H](Cc2c[nH]cn2)NC(=O)[C@H](C)NC(=O)CN(C)C(=O)[C@H](Cc2c[nH]c3ccccc23)NC(=O)[C@H](CC(=O)O)NC(=O)[C@H](CCC(N)=O)NC(=O)[C@H](Cc2cn(C)c3ccccc23)NC(=O)[C@H](C(C)C)NC1=O [compound 15] | 2.3 ± 0.3 10^6/Ms | 1.1 ± 0.1 | 0.0026
– | – | – | CC[C@H](C)[C@H](NC(=O)[C@H](N)Cc1c[nH]c2ccccc12)C(=O)N[C@H]1CSSC[C@@H](C(=O)N(C)[C@H](C(N)=O)[C@@H](C)CC)NC(=O)[C@H](CCCNC(=N)N)NC(=O)[C@H](Cc2c[nH]cn2)NC(=O)[C@H](C)NC(=O)CN(C)C(=O)[C@H](Cc2c[nH]c3ccccc23)NC(=O)[C@H](CC(=O)O)NC(=O)[C@H](CCC(N)=O)NC(=O)[C@H](Cc2cn(C)c3ccccc23)NC(=O)[C@H](C(C)C)NC1=O [compound 16] | 2.0 ± 0.2 10^6/Ms | – | –
– | – | – | CC[C@H](C)[C@H](NC(=O)[C@H](N)CC1CCCCC1)C(=O)N[C@H]1CSSC[C@@H](C(=O)N(C)[C@H](C(N)=O)[C@@H](C)CC)NC(=O)[C@H](CCCNC(=N)N)NC(=O)[C@H](Cc2c[nH]cn2)NC(=O)[C@H](C)NC(=O)CN(C)C(=O)[C@H](Cc2c[nH]c3ccccc23)NC(=O)[C@H](CC(=O)O)NC(=O)[C@H](CCC(N)=O)NC(=O)[C@H](Cc2cn(C)c3ccccc23)NC(=O)[C@H](C(C)C)NC1=O [compound 17] | 1.8 ± 0.5 10^6/Ms | 1.5 ± 0.2 | 0.0027 ± 0.0004
– | – | – | CC[C@H](C)[C@H](NC(=O)[C@@H](C)N)C(=O)N[C@H]1CSSC[C@@H](C(=O)N(C)[C@H](C(N)=O)[C@@H](C)CC)NC(=O)[C@H](CCCNC(=N)N)NC(=O)[C@H](Cc2c[nH]cn2)NC(=O)[C@H](C)NC(=O)CN(C)C(=O)[C@H](Cc2c[nH]c3ccccc23)NC(=O)[C@H](CC(=O)O)NC(=O)[C@H](CCC(N)=O)NC(=O)[C@H](Cc2cn(C)c3ccccc23)NC(=O)[C@H](C(C)C)NC1=O [compound 18] | 1.4 ± 0.3 10^6/Ms | 2.5 ± 0.4 | 0.0034 ± 0.0004
